Assay results as given in patent US7390836B2, “Small molecules used to increase cell death” (priority 1999, dated 2008).

How the values were obtained:
[1] = test system: Bak BH3 peptide / Bcl-xL (Bcl-xL/GST, Bcl-xL-His6) interaction; test: Fluorescence polarization assay, labeled Bak BH3 peptide binding to Bcl-xL fusion protein; details: for order of affinities of BH3Is: overall rank order from FP, NMR, pulldown and SELDI results; for order of decreasing affinity, fluorescence polarization assays: rank order
Source text: We have used a fluorescence polarization assay to screen a library of 16,000 chemical compounds (ChemBridge, San Diego, Calif.) to identify small molecules that inhibit the interaction between a peptide corresponding to the BH3 domain of a pro-apoptotic protein and a recombinant Bcl-xL/GST fusion protein. In this assay, an […] peptide corresponding to the BH3 domain of Bak was used. The Bak peptide was labeled with a fluorescent tag, such as OREGON GREEN. Upon binding of the tagged peptide to the Bcl-xL/GST fusion protein, the polarization of light emitted by the tagged peptide is altered. […] Conversely, in a sample in which a compound does inhibit the interaction between the Bak peptide and the Bcl-xL/GST fusion protein the polarization of light emitted by the peptide will not be altered.
A nineteen amino acid Bak peptide, corresponding to the BH3 domain of Bak, with the sequence […] (SEQ ID NO: 2) was labeled with the fluorophore OREGON GREEN according to the manufacturer's instructions (Molecular Probes, Eugene, Oreg.). In addition, a recombinant Bcl-xL/GST fusion protein was generated using conventional techniques known to those skilled in the fields of biochemistry and molecular biology. The interaction between the Bak peptide and the Bcl-xL/GST fusion protein was confirmed.
A screen of approximately 16,000 compounds from the ChemBridge chemical compound library was conducted to identify compounds that disrupt the interaction between the Bak peptide and the Bcl-xL/GST fusion protein. The ability of a compound to disrupt the interaction between the two polypeptides was assessed using a fluorescence polarization assay. The Bak peptide and Bcl-xL/GST fusion protein (15 nM each; dissolved in PBS) were first combined, and then the compound was added. Alternatively, the Bak peptide, Bcl-xL/GST fusion protein, and test compound (5 mg/ml; dissolved in 0.1-0.5 gl of DMSO) may be combined in any order. Normally the unbound Bak polypeptide results in polarization of approximately 40 mP units. Upon binding of the Bcl-xL/GST fusion protein, polarization increased to approximately 100-120 mP units.
In a preferred method, the fluorescence assay was carried out as follows. Bak BH3 peptide (Research Genetics) was labeled using NHS-OREGON GREEN (Molecular Probes) and purified by HPLC. For the initial screening assays, 33 nM of labeled BH3 peptide, 2 μM of GST-Bcl-xL protein, 0.1% bovine gamma globulin (BGG, Sigma) and 1 mM DTT mixed with PBS, pH 7.2 (Gibco) were added into 384 well black plates (Lab Systems) using MULTIDROP (Lab Systems). Small molecules (5 mg/ml in DMSO, ChemBridge) were transferred using plastic 384-pin arrays (Genetix). The plates were incubated for 1-2 hr at 25° C., and the fluorescence polarization assay values were determined using an Analyst plate reader (LJL Biosystems). Reactions containing 16.65 nM of labeled BH3 peptide and 4.2 μM of Bcl-xL-His6 fusion protein, which was previously utilized to characterize BH3/Bcl-xL binding (Sattler et al., Science 275:983-6, 1997) were used for the further fluorescence polarization analyses. Kd and Ki determination was performed as previously described using […] PRISM software package (GraphPad) (Dandliker et al., Methods Enzymol. 74:3-28,1981).
In a further screen, various concentrations of each of the above-identified compounds were evaluated for their potency. A serial dilution of each chemical compound was performed and the fluorescence polarization assay was repeated, as per the primary screen. As a result of the secondary screening, three compounds, chemical compound ID numbers 275805 (BH3I-1; FIG. 1), 282986 (BH3I-1′; FIG. 2), and 175362 (BH3I-2; FIG. 3), collectively termed “BH3Is,” were identified to disrupt the interaction between Bak and the BCL-xL/GST fusion protein. […] Additional homologues of the BH3I-1s (BH3I-1″ and BH3I-1′″) and BH3I-2 (BH3-2″ and BH3I-2″) were also analyzed in the study (FIG. 4). […]

Bcl-xL = biological target: T1, Bcl-xL (Homo sapiens, UniProt Q07817, DEL45-84); test: NMR titration of Bcl-xL; format: binding; details: for relative order of affinities, NMR titrations: rank order
T1 construct: His6 (C); made in house
Experimental: To verify this conclusion, NMR titrations of Bcl-xL with BH3I-1s were performed and their Ki values were determined (FIG. 4). […] The BH3I-1s Ki values obtained by the NMR approach agree with the results of both pulldown and SELDI analyses. Therefore, the order of affinities of BH3Is is: BH312′>BH3I-2>BH3I-2″>BH3I-1>BH3I-1′>BH3I-1″>BH3I-1′″.
NMR titration was used to examine whether BH3Iinteracts with the binding pocket of Bcl-xL in a manner similar to Bak BH3 peptide (Hajduk et al., Science 278:497-499, 1997).
Next, changes in Bcl-xL structure upon addition of increasing amounts of BH3Is were determined. Each of the BH3Is induced significant changes in the Bcl-xL structure. The compounds targeted the hydrophobic cleft formed by the BH1, BH2, and BH3 domains on the surface of the Bcl-xL protein, and primarily bound to the area formed by BH1 and BH2 domains.

T1 sequence (Q07817 with tags, fused parts or gaps DEL45-84 limits assumed): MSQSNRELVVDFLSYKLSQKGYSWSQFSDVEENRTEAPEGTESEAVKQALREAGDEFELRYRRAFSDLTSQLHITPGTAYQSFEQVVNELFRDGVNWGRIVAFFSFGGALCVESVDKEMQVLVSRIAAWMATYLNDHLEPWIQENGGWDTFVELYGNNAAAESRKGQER

Row | SMILES | order of affinities of BH3Is [1] | order of decreasing affinity, fluorescence polarization assays [1] | NOE magnetization transfer to Bcl-xL residues Y65 and F107 (Bcl-xL) | NMR derived Ki value, compared (Bcl-xL; compared with fluorescence polarization Ki of BH3I-2) | relative order of affinities, NMR titrations (Bcl-xL)
1 | CC(C)C(C(=O)O)N1C(=O)C(=Cc2ccc(Br)cc2)SC1=S (stereo in doubt) [BH3I-1] | BH312′>BH3I-2>BH3I-2″>BH3I-1>BH3I-1′>BH3I-1″>BH3I-1′″ | BH3I-1>BH3I-1′>BH3I-2′>BH3I-2>BH3I-2″>BH3I-1″ | direct contact between BH3I-1 and these residues | lower than the fluorescence polarization assay derived Ki value of BH3I-2 | BH3I-1>BH3I-1′>BH3I-1″>BH3I-1′″
2 | CC(C)C(C(=O)O)N1C(=O)/C(=C/c2ccccc2)SC1=S (stereo not shown) [BH3I-1″] | BH312′>BH3I-2>BH3I-2″>BH3I-1>BH3I-1′>BH3I-1″>BH3I-1′″ | BH3I-1>BH3I-1′>BH3I-2′>BH3I-2>BH3I-2″>BH3I-1″ | – | – | BH3I-1>BH3I-1′>BH3I-1″>BH3I-1′″
3 | O=C(Nc1cc(S(=O)(=O)c2ccc(Cl)cc2)ccc1Cl)c1cc(Cl)cc(Br)c1O [BH3I-2] | BH312′>BH3I-2>BH3I-2″>BH3I-1>BH3I-1′>BH3I-1″>BH3I-1′″ | BH3I-1>BH3I-1′>BH3I-2′>BH3I-2>BH3I-2″>BH3I-1″ | – | – | –
